Test results published in patent US7452887B2, “Quinoline- and isoquinoline-based compounds exhibiting ATP-utilizing enzyme inhibitory activity, and compositions, and uses thereof” (Amphora Discovery Corporation, priority 2004, dated 2008).

Legend:
Test in all cases: HTS ATP-utilizing enzyme assay, off-chip mobility-shift (Caliper HTS 250)
Details in all cases: test compound 10 μM, kinase listed = active (greater than six-sigma from the mean activity of inactive compounds)
ROCK2 = ROCK2 (Homo sapiens, UniProt O75116); format: biochemical
Outline: (§1)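 Single-point screen, 10 μM compound; kinase + peptide substrate, HEPES pH 7.5/Triton X-100/BSA; 2.5 hrs, 20–22° C.; EDTA stop. Readout: substrate vs phosphoproduct ratio by off-chip mobility shift. Hits called at six-sigma limits.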

LCK = LCK (Homo sapiens, UniProt P06239); format: biochemical
Outline: as §1

SRC = SRC (Homo sapiens, UniProt P12931); format: biochemical
Outline: as §1

CDK1/cyclin B = CDK1/cyclin B (Homo sapiens, UniProt P06493); format: biochemical
Outline: as §1

ABL1 = ABL1 (Homo sapiens, UniProt P00519); format: biochemical
Outline: as §1

MSK1 = MSK1 (Homo sapiens, UniProt O75582); format: biochemical
Outline: as §1

GSK-3-β = GSK-3-β (Homo sapiens, UniProt P49841); format: biochemical
Outline: as §1

PKA = PKA (Homo sapiens, UniProt P17612); format: biochemical
Outline: as §1

AKT1 = AKT1 (Homo sapiens, UniProt P31749); format: biochemical
Outline: as §1

CDK5 = CDK5 (Homo sapiens, UniProt Q00535); format: biochemical
Outline: as §1

CK2 = format: biochemical, human
From the text: The following procedures describe the reagent and plate preparation for a HTS of an ATP-utilizing enzyme, such as a protein kinase, run in an off-chip mobility-shift assay format. The following provides an HTS protocol for running a protein kinase HTS screen on a Caliper HTS 250 microfluidics system. The following parameters are dependent on the protein kinase used and can be determined by one skilled in the art as part of a typical assay development process. For example, the peptide substrate used can be identified from the current literature, by screening a peptide library of potential protein kinase substrates, or by other applicable means accepted in the field.
The following table provides typical screen assay parameters appropriate for a Caliper HTS 250 microfluidics system.
The reagents and buffers listed in the following table are generally applicable for developing and running an HTS screen on a human protein kinase using the Caliper HTS 250 system.
The following reagents were prepared using the previously described buffers.
A 2× Master Buffer solution was prepared by combining 200 mL of 1 M HEPES, pH 7.5, 2 mL of 10% Triton X-100, 20 mL of 10% BSA, and 778 mL of H2O.
A 2.5× Substrate Buffer solution was prepared by combining 177.408 mL of 2× Master Buffer, 0.887 mL of 1 mM peptide-X, and 176.521 mL of H2O.
A 1.55× Termination Buffer solution was prepared by combining 762.05 mL of 2× Master Buffer, 95.1 mL of 0.5 M EDTA, and 666.94 mL of H2O. […]
Assays to determine the kinase inhibitory activity of compounds of the present disclosure were performed using a Caliper HTS 250 microfluidics device, Greiner U-bottom assay plates, a Multidrop for transfer of reagents, and Biomek FX (AMNCBM03) software. […] The inhibition of the ATP-utilizing enzyme, such as a particular protein kinase, was determined by measuring the ratio of the peptide substrate to phosphorylated product for each well of the assay plate using the Caliper HTS 250 system. […]

Chain of ROCK2 (O75116 whole entry): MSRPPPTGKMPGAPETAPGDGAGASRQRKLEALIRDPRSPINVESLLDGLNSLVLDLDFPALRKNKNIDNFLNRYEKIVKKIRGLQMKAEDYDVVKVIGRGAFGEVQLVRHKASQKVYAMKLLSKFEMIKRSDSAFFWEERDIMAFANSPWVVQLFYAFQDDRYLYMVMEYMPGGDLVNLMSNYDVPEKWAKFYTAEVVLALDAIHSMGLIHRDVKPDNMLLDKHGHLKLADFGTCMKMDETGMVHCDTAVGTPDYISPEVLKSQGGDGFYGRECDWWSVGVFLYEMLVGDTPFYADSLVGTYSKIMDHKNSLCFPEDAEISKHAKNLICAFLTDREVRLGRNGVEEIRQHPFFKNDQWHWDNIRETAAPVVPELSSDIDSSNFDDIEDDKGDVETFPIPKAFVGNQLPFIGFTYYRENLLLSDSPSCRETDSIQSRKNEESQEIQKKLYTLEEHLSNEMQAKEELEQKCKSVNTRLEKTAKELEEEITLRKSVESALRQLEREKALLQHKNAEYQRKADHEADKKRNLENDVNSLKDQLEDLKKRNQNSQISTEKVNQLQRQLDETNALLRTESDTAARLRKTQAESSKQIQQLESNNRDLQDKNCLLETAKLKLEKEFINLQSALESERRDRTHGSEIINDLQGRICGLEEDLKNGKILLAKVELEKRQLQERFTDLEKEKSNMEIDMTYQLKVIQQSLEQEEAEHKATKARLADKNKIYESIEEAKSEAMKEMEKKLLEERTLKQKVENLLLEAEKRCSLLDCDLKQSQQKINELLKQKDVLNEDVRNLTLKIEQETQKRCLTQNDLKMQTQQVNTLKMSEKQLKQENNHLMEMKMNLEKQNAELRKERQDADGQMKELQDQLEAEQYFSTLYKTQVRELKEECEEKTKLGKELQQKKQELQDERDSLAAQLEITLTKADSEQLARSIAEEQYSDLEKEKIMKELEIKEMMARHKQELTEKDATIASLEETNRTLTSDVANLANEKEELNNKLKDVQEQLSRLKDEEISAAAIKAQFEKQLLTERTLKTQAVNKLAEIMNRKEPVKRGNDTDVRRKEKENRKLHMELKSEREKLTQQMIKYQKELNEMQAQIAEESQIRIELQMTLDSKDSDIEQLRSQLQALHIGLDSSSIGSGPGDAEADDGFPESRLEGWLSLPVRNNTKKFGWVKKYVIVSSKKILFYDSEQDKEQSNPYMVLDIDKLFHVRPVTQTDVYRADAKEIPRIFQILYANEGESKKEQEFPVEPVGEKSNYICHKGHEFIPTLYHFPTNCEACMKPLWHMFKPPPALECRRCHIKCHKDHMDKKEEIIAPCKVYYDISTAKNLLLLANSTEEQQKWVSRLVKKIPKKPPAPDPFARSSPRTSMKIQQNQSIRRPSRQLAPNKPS
Chain of CDK1/cyclin B (P06493 whole entry): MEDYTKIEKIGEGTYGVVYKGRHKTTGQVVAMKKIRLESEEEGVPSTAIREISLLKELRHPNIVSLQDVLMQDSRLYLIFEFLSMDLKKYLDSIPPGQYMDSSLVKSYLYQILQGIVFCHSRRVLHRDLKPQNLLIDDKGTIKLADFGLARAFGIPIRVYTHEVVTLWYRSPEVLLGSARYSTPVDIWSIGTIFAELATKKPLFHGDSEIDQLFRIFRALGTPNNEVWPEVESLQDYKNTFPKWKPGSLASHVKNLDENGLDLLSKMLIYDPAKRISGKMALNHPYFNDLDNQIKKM
Chain of CDK1/cyclin B (P14635 whole entry partner): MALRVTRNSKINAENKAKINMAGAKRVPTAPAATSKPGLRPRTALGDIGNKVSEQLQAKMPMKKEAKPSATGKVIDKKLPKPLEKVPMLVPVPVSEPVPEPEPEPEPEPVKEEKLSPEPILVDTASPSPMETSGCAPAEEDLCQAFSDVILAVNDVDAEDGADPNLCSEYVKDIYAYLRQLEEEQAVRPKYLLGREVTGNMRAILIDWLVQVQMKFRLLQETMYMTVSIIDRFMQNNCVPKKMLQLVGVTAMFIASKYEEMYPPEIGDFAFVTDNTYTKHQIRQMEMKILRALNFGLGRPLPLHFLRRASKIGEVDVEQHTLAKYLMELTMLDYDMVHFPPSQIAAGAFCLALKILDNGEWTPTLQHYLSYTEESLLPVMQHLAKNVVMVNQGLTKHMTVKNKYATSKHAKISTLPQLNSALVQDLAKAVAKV
Chain of ABL1 (P00519 whole entry): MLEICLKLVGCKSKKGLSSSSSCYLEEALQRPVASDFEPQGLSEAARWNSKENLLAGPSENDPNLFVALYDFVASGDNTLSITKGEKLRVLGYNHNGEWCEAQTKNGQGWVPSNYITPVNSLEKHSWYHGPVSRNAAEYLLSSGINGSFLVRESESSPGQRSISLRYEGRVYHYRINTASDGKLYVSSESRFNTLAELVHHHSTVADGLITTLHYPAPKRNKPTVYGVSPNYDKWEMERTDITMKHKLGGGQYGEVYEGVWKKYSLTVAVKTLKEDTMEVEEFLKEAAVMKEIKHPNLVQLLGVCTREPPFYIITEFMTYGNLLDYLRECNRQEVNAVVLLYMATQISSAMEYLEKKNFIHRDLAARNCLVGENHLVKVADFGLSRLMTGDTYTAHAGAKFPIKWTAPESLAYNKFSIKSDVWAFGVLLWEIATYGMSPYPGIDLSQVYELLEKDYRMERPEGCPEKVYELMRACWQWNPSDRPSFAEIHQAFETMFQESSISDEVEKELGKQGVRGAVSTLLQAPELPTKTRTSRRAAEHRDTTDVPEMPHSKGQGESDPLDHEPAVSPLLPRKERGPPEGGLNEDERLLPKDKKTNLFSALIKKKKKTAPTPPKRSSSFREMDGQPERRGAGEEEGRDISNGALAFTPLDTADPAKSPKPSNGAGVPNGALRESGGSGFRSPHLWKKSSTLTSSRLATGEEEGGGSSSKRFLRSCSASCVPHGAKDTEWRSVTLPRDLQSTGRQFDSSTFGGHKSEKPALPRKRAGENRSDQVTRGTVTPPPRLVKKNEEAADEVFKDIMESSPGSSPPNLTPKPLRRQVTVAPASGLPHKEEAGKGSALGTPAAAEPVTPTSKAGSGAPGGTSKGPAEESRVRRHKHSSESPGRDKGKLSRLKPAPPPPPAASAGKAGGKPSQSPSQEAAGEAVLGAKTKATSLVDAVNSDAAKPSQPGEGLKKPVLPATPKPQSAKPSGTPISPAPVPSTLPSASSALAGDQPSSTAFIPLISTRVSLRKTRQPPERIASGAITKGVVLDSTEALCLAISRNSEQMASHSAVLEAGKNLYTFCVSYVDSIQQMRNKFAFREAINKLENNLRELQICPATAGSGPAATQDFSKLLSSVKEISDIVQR
Chain of AKT1 (P31749 whole entry): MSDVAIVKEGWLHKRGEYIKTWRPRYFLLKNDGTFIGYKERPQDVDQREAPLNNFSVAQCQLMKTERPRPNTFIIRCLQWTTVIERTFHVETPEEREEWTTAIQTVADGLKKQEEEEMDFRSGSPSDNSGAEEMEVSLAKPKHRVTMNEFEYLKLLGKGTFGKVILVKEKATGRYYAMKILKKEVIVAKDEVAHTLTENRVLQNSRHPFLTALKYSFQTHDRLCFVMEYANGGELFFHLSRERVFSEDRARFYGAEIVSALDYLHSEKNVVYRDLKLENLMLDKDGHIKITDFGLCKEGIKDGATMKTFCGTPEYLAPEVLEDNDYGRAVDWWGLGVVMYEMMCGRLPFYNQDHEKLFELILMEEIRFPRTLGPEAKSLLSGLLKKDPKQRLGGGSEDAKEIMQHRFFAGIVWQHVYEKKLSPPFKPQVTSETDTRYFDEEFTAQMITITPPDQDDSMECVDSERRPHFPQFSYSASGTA
Chain of GSK-3-β (P49841 whole entry): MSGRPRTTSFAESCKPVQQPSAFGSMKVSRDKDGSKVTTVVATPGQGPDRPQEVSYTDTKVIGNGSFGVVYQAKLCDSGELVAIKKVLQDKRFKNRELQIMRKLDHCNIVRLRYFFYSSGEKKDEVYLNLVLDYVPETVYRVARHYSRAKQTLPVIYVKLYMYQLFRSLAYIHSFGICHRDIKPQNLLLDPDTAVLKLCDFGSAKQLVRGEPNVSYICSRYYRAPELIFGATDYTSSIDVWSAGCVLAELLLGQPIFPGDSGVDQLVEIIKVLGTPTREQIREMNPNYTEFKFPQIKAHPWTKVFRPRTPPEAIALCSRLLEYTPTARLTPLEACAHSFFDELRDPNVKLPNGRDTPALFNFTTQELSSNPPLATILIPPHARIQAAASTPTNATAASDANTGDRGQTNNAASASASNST
Chain of CDK5 (Q00535 whole entry): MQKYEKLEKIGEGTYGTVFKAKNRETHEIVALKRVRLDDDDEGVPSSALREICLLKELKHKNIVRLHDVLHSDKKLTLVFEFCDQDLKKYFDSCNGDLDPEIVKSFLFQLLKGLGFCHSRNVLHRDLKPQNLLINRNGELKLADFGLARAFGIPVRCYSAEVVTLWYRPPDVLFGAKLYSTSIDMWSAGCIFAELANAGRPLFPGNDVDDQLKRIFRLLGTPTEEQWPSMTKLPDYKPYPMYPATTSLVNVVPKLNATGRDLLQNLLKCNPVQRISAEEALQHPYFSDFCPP
Chain of CDK5 (Q15078 whole entry partner): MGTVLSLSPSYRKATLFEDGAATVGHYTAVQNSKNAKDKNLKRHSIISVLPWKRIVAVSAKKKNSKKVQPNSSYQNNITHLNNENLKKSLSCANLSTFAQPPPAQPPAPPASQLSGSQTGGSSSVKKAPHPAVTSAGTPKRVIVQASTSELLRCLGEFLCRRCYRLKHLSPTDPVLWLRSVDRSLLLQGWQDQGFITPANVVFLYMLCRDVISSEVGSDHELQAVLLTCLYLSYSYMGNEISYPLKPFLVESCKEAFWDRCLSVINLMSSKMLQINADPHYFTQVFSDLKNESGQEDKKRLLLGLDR

For `CN1CCN(c2ccc(Nc3ccnc4ccc(-c5ccc(O)cc5)cc34)cc2)CC1` [4-(4-(4-(4-methylpiperazin-1-yl)phenylamino)quinolin-6-yl)phenol], the Activity (ROCK2) was “ROCK2”.
In the case of `CN1CCN(c2ccc(Nc3ccnc4ccc(-c5cccc6ccccc56)cc34)cc2)CC1` [N-(4-(4-methylpiperazin-1-yl)phenyl)-6-(naphthalen-1-yl)quinolin-4-amine], the Activity (LCK) was “LCK”, the Activity (SRC) was “SRC” and the Activity (CDK1/cyclin B) was “CDK1/cyclin B”. For the same compound, the Activity (ABL1) was “ABL1”.
With `CN1CCN(c2ccc(Nc3ccnc4ccc(-c5ccncc5)cc34)cc2)CC1` [N-(4-(4-methylpiperazin-1-yl)phenyl)-6-(pyridin-4-yl)quinolin-4-amine] the Activity (MSK1) was “MSK1”, the Activity (GSK-3-β) was “GSK-3-β” and the Activity (PKA) was “PKA”. The Activity (AKT1) was “AKT1”, the Activity (ROCK2) was “ROCK2” and the Activity (CDK5) was “CDK5”. The Activity (CK2) was “CK2”.
`COc1ccc(-c2ccc3nccc(Nc4ccc(N5CCNCC5)cc4)c3c2)cc1` [6-(4-methoxyphenyl)-N-(4-(piperazin-1-yl)phenyl)quinolin-4-amine] was tested, and the Activity (CDK1/cyclin B) was “CDK1/cyclin B”.
